For orientation: density means the mass of a sample divided by its volume.

This data set can be described thus: Density of ionic liquids. It is filed as physicochemical. Particulars: 20° C. How it is done:
Density and molecular weight (Mw) of Ionic liquids 1 to 4 were determined at 20° C., and each ion concentration was calculated from the relationship: [density of ionic liquid (g/cm^3)/molecular weight (MW) of ionic liquid (g/mol)]×1000.
As to `CCn1cc[n+](C)c1.F[B-](F)(F)F` [Ionic liquid 1, 1-Ethyl-3-methylimidazolium tetrafluoroborate], the density stood at 1.283 g/mL.

Turning to `CCCCn1cc[n+](C)c1.F[B-](F)(F)F` [Ionic liquid 4, 1-Butyl-3-methylimidazolium tetrafluoroborate], the density came to 1.208 g/mL.

Molecule “Butylpyridinium bis(trifluoromethanesulfonyl)imide [Ionic liquid 2]” came in with a density of 1.453 g/mL.

In turn, “N,N-diethyl-N-methyl(2-methoxyethyl)ammonium bis(trifluoromethanesulfonyl)imide [Ionic liquid 3]” came in with a density of 1.420 g/mL.

The values above are taken from US8318644B2, “Lubricating oil” (Idemitsu Kosan Co., Ltd., priority 2003, dated 2012).
